These results are taken from patent US7723356B2, “Quinuclidine derivatives and their use as muscarinic m3 receptor antagonists” (Novartis AG, priority 2004, dated 2010).

A word on the Ki: it is the dissociation constant of the complex between target and ligand, obtained from inhibition or displacement. A low value points to a stronger hold on the target.

This assay addresses T1, human muscarinic acetylcholine M3 receptor (Homo sapiens, UniProt P20309).
T1 construct: expressed in transfected cells; host or cells: CHO cells (stably transfected), membrane preparation
Kind of assay: competitive filtration binding assay with [3H] n-methyl scopolamine (NMS). The settings on record: membranes from CHO cells stably transfected with human M3 receptor, [3H]NMS 0.25 nM. The procedure: The affinity (Ki) of agents of the invention at the human muscarinic acetylcholine M3 receptor can be determined in a competitive filtration binding assay with the radio-labelled antagonist [^3H] n-methyl scopolamine methyl chloride. (NMS):
Membranes prepared from CHO cells stably transfected with human M3 receptor at 10 μg protein/well are incubated with serial dilutions of the agents of the invention, [^3H]NMS (0.25 nM) and assay buffer (20 mM HEPES, 1 mM MgCl2 at pH 7.4) for 17 hours at room temperature. The assay is carried out in a 250 μL final volume, in the presence of a final dimethyl sulfoxide concentration of 1%. Total binding of [^3H]NMS is determined in the absence of the agents of the invention with a corresponding substituted volume of assay buffer. Non-specific binding of [^3H] NMS is determined in the presence of 300 nM ipratropium bromide. Following the incubation period, the membranes are harvested onto a Unifilter™ GF/B filter plate containing 0.05% polyethyleneimine, using a Brandel™ filtration harvester 9600. Filter plates are dried for two hours at 35° C. before the addition of Microscint™ ‘O’ cocktail, and read on a Packard Topcount™ scintillator using a ^3H-Scintillation protocol. All IC50s are calculated with the aid of XL-Fit graph package and Ki values derived using the Cheng-Prusoff correction (Cheng Y., Prusoff W. H. (1973) Biochem. Pharmacol 22 3099-3109).

The mark [1] stands for this setting: M3 Ki, 17 hours at room temperature, Cheng-Prusoff correction.

T1 sequence (P20309 whole entry): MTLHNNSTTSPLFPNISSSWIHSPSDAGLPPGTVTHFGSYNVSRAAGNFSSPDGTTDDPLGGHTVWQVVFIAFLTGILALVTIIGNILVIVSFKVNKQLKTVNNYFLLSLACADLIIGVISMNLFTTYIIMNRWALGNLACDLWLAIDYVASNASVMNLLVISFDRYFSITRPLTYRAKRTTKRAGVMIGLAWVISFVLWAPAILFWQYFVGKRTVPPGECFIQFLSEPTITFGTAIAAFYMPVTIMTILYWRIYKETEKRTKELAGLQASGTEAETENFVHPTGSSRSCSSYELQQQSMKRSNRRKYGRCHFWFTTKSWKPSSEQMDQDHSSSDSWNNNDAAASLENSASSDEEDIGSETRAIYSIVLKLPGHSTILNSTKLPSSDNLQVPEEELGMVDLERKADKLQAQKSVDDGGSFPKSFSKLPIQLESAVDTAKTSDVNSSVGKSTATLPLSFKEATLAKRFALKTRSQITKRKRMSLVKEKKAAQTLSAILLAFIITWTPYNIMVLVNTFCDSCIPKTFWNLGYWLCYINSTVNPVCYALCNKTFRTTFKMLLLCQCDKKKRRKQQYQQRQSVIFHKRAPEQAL

On to `O=C(C[N+]12CCC(CC1)[C@@H](OC(=O)C(O)(c1ccccc1Cl)c1ccccc1Cl)C2)Nc1ccon1` [Example 1, (R)-3-[2,2-Bis-(2-chloro-phenyl)-2-hydroxy-acetoxy]-1-(isoxazol-3-ylcarbamoylmethyl)-1-azonia-bicyclo[2.2.2]octane bromide], for which, under setting [1], the Ki was 2.3 nM.
On the same count and under the same terms, the result for `Cc1ccc(C(O)(C(=O)O[C@H]2C[N+]3(CC(=O)Nc4ccon4)CCC2CC3)c2ccc(C)cc2)cc1` [Example 2, (R)-3-(2-Hydroxy-2,2-di-p-tolyl-acetoxy)-1-(isoxazol-3-ylcarbamoylmethyl)-1-azonia-bicyclo[2.2.2]octane bromide] reads 1.4 nM; that for `CC(C(=O)O[C@H]1C[N+]2(CC(=O)Nc3ccon3)CCC1CC2)(c1ccccc1)c1ccccc1` [Example 4, (R)-3-(2,2-Diphenyl-propionyloxy)-1-(isoxazol-3-ylcarbamoylmethyl)-1-azonia-bicyclo[2.2.2]octane bromide], 0.65 nM.
The same measure, in the same setting: the result for `O=C(C[N+]12CCC(CC1)[C@@H](OC(=O)C(c1ccccc1)c1ccccc1)C2)Nc1ccon1` [Example 5, (R)-3-Diphenylacetoxy-1-(isoxazol-3-ylcarbamoylmethyl)-1-azonia-icyclo[2.2.2]octane bromide] reads 0.63 nM.
As to `O=C(C[N+]12CCC(CC1)[C@@H](OC(=O)C(O)(c1ccccc1)C1CCCCC1)C2)Nc1ccon1` (stereo partly drawn) [Example 8, (R)-3-(2-Cyclohexyl-2-hydroxy-2-phenyl-acetoxy)-1-(isoxazol-3-ylcarbamoylmethyl)-1-azonia-bicyclo[2.2.2]octane bromide], the Ki under setting [1] stood at 0.75 nM and the affinity (M3 pKi), expressed as Ki, was 0.0126 nM.
Consider `O=C(C[N+]12CCC(CC1)[C@@H](OC(=O)C(O)(c1cccs1)C1CCCCC1)C2)Nc1ccon1` (stereo partly drawn) [Example 10, (R)-3-(2-Cyclohexyl-2-hydroxy-2-thiophen-2-yl-acetoxy)-1-(isoxazol-3-ylcarbamoylmethyl)-1-azonia-bicyclo[2.2.2]octane bromide], for which affinity (M3 pKi) was put at a Ki of 0.0115 nM.
The same measure, in the same setting: the result for `O=C(C[N+]12CCC(CC1)[C@@H](OC(=O)C(O)(c1ccccc1)C1CCCC1)C2)Nc1ccon1` (stereo partly drawn) [Example 11, (R)-3-(2-Cyclopentyl-2-hydroxy-2-phenyl-acetoxy)-1-(isoxazol-3-ylcarbamoyl-methyl)-1-azonia-bicyclo[2.2.2]octane bromide] reads 0.00631 nM.
